PMC5429603, “Discovery and characterization of verinurad, a potent and specific inhibitor of URAT1 for the treatment of hyperuricemia and gout” (Scientific Reports, 2017)

Columns and labels:
[1] = target: T1, human URAT1 h-V18L (Homo sapiens, UniProt Q96S37, V18L); experiment: URAT1 activity assay, h-V18L; format: cell-based; conditions: TM1 point mutant, read-out: Verinurad affinity (IC50)
T1 construct: expressed in transfected cells; host or cells: HEK-293T
Text: (§1) Human URAT1 (GenBank BC053348.1, Homo sapiens SLC22A12), rat URAT1 (NCBI NM_001034943.1, Rattus norvegicus Slc22a12) and human OAT4 (NCBI NM_018484.2, Homo sapiens SLC22A11) genes were purchased from Origene Technologies, Inc. and subcloned into pCMV6/neo using NotI. Where indicated, controls transfections used pCMV6/neo. Mutants were produced by site-directed mutagenesis using the QuikChange Lightning Multi Site-Directed Mutagenesis Kit (Agilent Technologies). […] Mutagenic primer sequences are provided in ref. [15] and mutagenic primer sequences for previously unreported mutants shown in Supplementary Table 1. All constructs used in this study were untagged. Human OAT1 was purchased from Fisher Scientific (catalog # MHS1010–7508183 in pSPORT6, NCBI NM_153276.2, Homo sapiens SLC22A6).
(§2) HEK-293T cells were maintained in DMEM/high glucose/L-glutamine/HEPES supplemented with 1 mM sodium pyruvate (Life Technologies) and 10% FBS (PAA Laboratories) at 37 °C in 5% CO2. […]
(§3) URAT1 and OAT4 activity assays were performed in assay buffer consisting of 25 mM MES pH 5.5 (from a 1 M MES solution [Sigma] adjusted to pH 5.5 with sodium hydroxide), 125 mM sodium gluconate, 4.8 mM potassium gluconate, 1.2 mM monobasic potassium phosphate, 1.2 mM magnesium sulfate, 1.3 mM calcium gluconate and 5.6 mM glucose. […] Each treatment was measured in triplicate.

[2] = target: T2, human URAT1 h-V26T (Homo sapiens, UniProt Q96S37, V26T); experiment: URAT1 activity assay, h-V26T; format: cell-based; conditions: TM1 point mutant, read-out: Verinurad affinity (IC50)
T2 construct: expressed in transfected cells; host or cells: HEK-293T
T2 sequence (Q96S37 whole entry V26T): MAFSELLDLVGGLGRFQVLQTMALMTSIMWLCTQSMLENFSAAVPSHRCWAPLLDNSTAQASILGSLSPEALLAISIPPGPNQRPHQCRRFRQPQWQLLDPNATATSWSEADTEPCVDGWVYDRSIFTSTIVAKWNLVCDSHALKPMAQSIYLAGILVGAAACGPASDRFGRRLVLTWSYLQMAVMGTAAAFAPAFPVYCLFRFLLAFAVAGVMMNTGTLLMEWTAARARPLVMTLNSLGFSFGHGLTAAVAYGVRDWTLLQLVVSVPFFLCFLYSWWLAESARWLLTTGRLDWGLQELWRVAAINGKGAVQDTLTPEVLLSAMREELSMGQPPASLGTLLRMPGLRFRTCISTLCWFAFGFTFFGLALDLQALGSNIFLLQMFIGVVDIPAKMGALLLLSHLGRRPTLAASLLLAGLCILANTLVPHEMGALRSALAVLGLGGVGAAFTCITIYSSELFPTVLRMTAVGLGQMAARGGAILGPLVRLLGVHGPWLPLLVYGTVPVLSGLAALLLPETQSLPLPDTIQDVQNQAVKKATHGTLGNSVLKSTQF
Text: as §1, §2, §3

[3] = target: T3, human URAT1 h-S27P (Homo sapiens, UniProt Q96S37, S27P); experiment: URAT1 activity assay, h-S27P; format: cell-based
T3 construct: expressed in transfected cells; host or cells: HEK-293T
T3 sequence (Q96S37 whole entry S27P): as the sequence (Q96S37 whole entry V26T) above, with T26V, S27P counted along it
Text: as §1, §2, §3

[4] = target: T4, human URAT1 h-C32T (Homo sapiens, UniProt Q96S37, C32T); experiment: URAT1 activity assay, h-C32T; format: cell-based
T4 construct: expressed in transfected cells; host or cells: HEK-293T
T4 sequence (Q96S37 whole entry C32T): as the sequence (Q96S37 whole entry V26T) above, with T26V, C32T counted along it
Text: as §1, §2, §3

[5] = target: T5, human URAT1 h-S35N (Homo sapiens, UniProt Q96S37, S35N); experiment: URAT1 activity assay, h-S35N; format: cell-based
T5 construct: expressed in transfected cells; host or cells: HEK-293T
T5 sequence (Q96S37 whole entry S35N): as the sequence (Q96S37 whole entry V26T) above, with T26V, S35N counted along it
Text: as §1, §2, §3

[6] = target: T6, human URAT1-F365Y (Homo sapiens, UniProt Q96S37, F365Y); experiment: URAT1 activity assay, h-F365Y; format: cell-based
T6 construct: expressed in transfected cells; host or cells: HEK-293T
T6 sequence (Q96S37 whole entry F365Y): as the sequence (Q96S37 whole entry V26T) above, with T26V, F365Y counted along it
Text: as §1, §2, §3

[7] = target: T7, human URAT1 h-I481M (Homo sapiens, UniProt Q96S37, I481M); experiment: URAT1 activity assay, h-I481M; format: cell-based
T7 construct: expressed in transfected cells; host or cells: HEK-293T
T7 sequence (Q96S37 whole entry I481M): as the sequence (Q96S37 whole entry V26T) above, with T26V, I481M counted along it
Text: as §1, §2, §3

[8] = target: T8, rat URAT1 r-N35S (Rattus norvegicus, UniProt Q3ZAV1, N35S); experiment: URAT1 activity assay, r-N35S; format: cell-based
T8 construct: expressed in transfected cells; host or cells: HEK-293T
T8 sequence (Q3ZAV1 whole entry N35S): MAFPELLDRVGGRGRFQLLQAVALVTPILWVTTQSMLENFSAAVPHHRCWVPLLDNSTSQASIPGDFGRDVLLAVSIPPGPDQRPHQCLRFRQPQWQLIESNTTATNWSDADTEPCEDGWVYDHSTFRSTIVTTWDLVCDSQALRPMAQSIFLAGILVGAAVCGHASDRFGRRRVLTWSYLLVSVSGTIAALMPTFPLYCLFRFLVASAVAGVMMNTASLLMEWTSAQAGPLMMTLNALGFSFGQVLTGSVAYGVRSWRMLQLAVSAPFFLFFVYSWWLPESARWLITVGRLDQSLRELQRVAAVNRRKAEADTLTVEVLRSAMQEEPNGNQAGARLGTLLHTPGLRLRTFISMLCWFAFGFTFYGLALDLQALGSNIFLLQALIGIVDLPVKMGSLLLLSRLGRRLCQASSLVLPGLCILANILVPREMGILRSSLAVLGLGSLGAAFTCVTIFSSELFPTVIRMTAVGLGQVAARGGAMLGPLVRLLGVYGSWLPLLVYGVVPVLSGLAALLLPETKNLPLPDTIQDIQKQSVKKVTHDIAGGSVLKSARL
Text: as §1, §2, §3

[9] = target: T9, rat URAT1 r-M481I (Rattus norvegicus, UniProt Q3ZAV1, M481I); experiment: URAT1 activity assay, r-M481I; format: cell-based
T9 construct: expressed in transfected cells; host or cells: HEK-293T
T9 sequence (Q3ZAV1 whole entry M481I): as the sequence (Q3ZAV1 whole entry N35S) above, with S35N, M481I counted along it
Text: as §1, §2, §3

[10] = tested on: healthy human volunteers; experiment: Verinurad study in humans (sUA and FEUA after a single dose); format: in vivo; conditions: single 40 mg dose
Experimental: The study was conducted in accordance with Good Clinical Practice and the Declaration of Helsinki and with independent ethics committee (Welwyn Clinical Pharmacology Ethics Committee, Hatfield, UK) approval. Informed consent was obtained from all subjects before participating in the study. […] Urine samples were collected from 0 to 6 hours, 6 to 12 hours and 12 to 24 hours post dosing to measure the urinary excretion of uric acid and creatinine. FEUA was calculated using equation 1:1 FEUA=([urineuricacid]×[serumcreatinine])/([serumuricacid]×[urinecreatinine]) To determine time-weighted average plasma verinurad concentrations (TWA), plasma verinurad levels were first measured from serial plasma collections.

[11] = target: T10, human URAT1 (Homo sapiens, UniProt Q96S37); experiment: URAT1 activity assay (14C-uric acid transport), human URAT1; format: cell-based; set-up: host or cells: HEK-293T
T10 sequence (Q96S37 1-553): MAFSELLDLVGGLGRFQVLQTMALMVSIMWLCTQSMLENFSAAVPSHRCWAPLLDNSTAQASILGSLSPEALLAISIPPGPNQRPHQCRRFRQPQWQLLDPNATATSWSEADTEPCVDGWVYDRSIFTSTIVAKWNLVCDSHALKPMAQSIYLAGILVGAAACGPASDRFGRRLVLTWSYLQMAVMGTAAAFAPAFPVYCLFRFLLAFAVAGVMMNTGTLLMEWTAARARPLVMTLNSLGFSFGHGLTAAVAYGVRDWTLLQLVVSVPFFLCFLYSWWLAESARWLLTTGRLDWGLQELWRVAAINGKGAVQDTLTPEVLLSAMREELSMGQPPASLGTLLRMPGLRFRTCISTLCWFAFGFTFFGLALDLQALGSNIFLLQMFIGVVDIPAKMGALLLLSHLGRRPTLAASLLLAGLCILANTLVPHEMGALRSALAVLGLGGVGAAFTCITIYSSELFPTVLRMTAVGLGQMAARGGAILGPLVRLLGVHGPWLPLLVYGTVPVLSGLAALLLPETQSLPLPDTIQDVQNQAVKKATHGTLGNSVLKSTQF
Experimental: HEK-293T cells were maintained in DMEM/high glucose/L-glutamine/HEPES supplemented with 1 mM sodium pyruvate (Life Technologies) and 10% FBS (PAA Laboratories) at 37 °C in 5% CO2. To express URAT1, OAT4 or OAT1, plasmids were reverse transfected into HEK-293T cells. DNA (10 µg) was mixed with 30 µl of DreamFect Gold (Boca Scientific) in 2 ml OptiMem (Life Technologies). After 20 minutes, 18 ml of media containing 2 × 10^7 cells in suspension was added and mixed, and 200 µl per well were plated onto white clear-bottomed poly-D-lysine coated 96-well plates (BD Biosciences). The cells were assayed the following day.
URAT1 and OAT4 activity assays were performed in assay buffer consisting of 25 mM MES pH 5.5 (from a 1 M MES solution [Sigma] adjusted to pH 5.5 with sodium hydroxide), 125 mM sodium gluconate, 4.8 mM potassium gluconate, 1.2 mM monobasic potassium phosphate, 1.2 mM magnesium sulfate, 1.3 mM calcium gluconate and 5.6 mM glucose. URAT1 inhibitors were serially diluted into assay buffer and added to the cells for 5 minutes prior to addition of substrate. URAT1-expressing cells were incubated with 100 µM ^14C-uric acid for 10 minutes and OAT4-expressing cells were incubated with 20 µM carboxyfluorescein (Life Technologies, Inc.) for 5 minutes. Cells were then washed three times in 25 mM MES pH 5.5/125 mM sodium gluconate, and solubilized in Ultima Gold (Perkin Elmer) prior to liquid scintillation counting. Each treatment was measured in triplicate.

[12] = target: T10, human URAT1; experiment: URAT1 binding assay with 3H-verinurad, human URAT1 membranes
Experimental: Membranes were prepared from cells transfected on the previous day with URAT1 expression constructs. Cells (5–10 × 10^8) were harvested in 1 ml ice-cold binding buffer (25 mM HEPES pH 7.3, 125 mM sodium gluconate) containing complete, EDTA-free protease inhibitor cocktail (Sigma). Cells were lysed with 100 strokes in a 2 ml dounce homogenizer using a tight-fitting “B” stem. Lysates were transferred to 1.5 mL Eppendorf tubes and centrifuged at 250 rcf for 5 minutes at 2 °C, and supernatants were transferred to fresh tubes and centrifuged again at 18,000 rcf for 20 minutes at 2 °C. The pellets (membrane fractions) were resuspended in 1 ml of ice-cold binding buffer containing protease inhibitors and frozen at −80 °C. Protein was measured using the Bio-Rad protein assay dye reagent concentrate.
Samples were then rapidly filtered through 25 mm glass fiber/1.2 µM PES 96-well filter plates (Corning FiltrEX 3510), and washed once with 200 µl ice-cold binding buffer. The plates were then subjected to scintillation counting. All samples were assayed in triplicate.
GraphPad Prism software was used for non-linear regression and statistical analyses. […] For kinetic measurements (K m and B max values), the “one site – specific binding” equation was used, after subtracting transport or binding measurements from control transfected cells. Statistical significance was assessed using Student’s unpaired t-tests.

[13] = TM1 point mutant, read-out: Verinurad affinity (IC50)
[14] = TM11 point mutant, read-out: Verinurad affinity (IC50)

T1 sequence (Q96S37 whole entry V18L): as the sequence (Q96S37 whole entry V26T) above, with V18L, T26V counted along it

IC50 [1]: 0.026 ± 0.015 µM
IC50 [2]: 0.014 ± 0.0015 µM
fold decrease in affinity ([3]; h-S27P vs human URAT1): 1.6 fold
IC50 ([3]; h-S27P, TM1 point mutant, read-out: Verinurad affinity (IC50)): 0.039 ± 0.009 µM
fold reduced affinity relative to human URAT1 [4]: 4 fold
IC50 [4, 13]: 0.095 ± 0.026 µM
fold lower affinity relative to human URAT1 [5]: 14 fold
IC50 [5, 13]: 0.36 ± 0.15 µM
fold lower affinity relative to human URAT1 [6]: 160 fold
IC50 ([6]; TM7 point mutant, read-out: Verinurad affinity (IC50)): 4 ± 1.7 µM
fold reduction in affinity compared to human URAT1 [7]: 2 fold
IC50 [7, 14]: 0.053 ± 0.01 µM
fold higher affinity relative to rat URAT1 [8]: 4 fold
IC50 [8, 13]: 10 ± 1.5 µM
fold increase in affinity compared to rat URAT1 [9]: 4 fold
IC50 [9, 14]: 11 ± 3.1 µM
fold potency for URAT1 compared to other transporters ([11]; URAT1 vs other transporters): greater than 100 fold
IC50 ([11]; human URAT1 wild type in HEK-293T, 100 µM 14C-uric acid, pH 5.5, read-out: IC50, inhibition of transport activity): 0.025 ± 0.0036 µM
IC50 ([11]; human URAT1 wild type, read-out: IC50, inhibition of transport activity of human URAT1): 0.025 µM
IC50 [12]: 0.0078 µM
Ki [12]: 0.0069 µM
mode of inhibition of 3H-verinurad binding ([12]; human URAT1 membranes): competitive inhibition
SMILES: CC(C)(Sc1ccncc1-c1ccc(C#N)c2ccccc12)C(=O)O [Verinurad, 2-((3-(4-cyanonaphthalen-1-yl)pyrindin-4-yl)thio)-2-methylpropanoic acid]
time sUA is maintained below pretreatment levels [10]: 24 h
EC50 ([10]; healthy human volunteers, time-weighted average plasma concentration, read-out: half-maximal effective concentration in plasma for increase in FEUA): 0.022 µM
